PMC9532951, “Identification and characterization of a novel SNAT2 (SLC38A2) inhibitor reveals synergy with glucose transport inhibition in cancer cells” (Frontiers in Pharmacology, 2022)
Values joined by “and” are separate entries in the source; they are usually repeats but may differ in a detail not shown here. Equal entries are not always repeated.

Assays:
[1] = tested on: SNAT1/2; assay: FMP assay: depolarisation by amino acid substrates in amino acid depleted HCC1806 cells; format: cell-based, human; details: for FMP fluorescence reading: amino acid 1 mM final; for FMP response as substrate: 1 mM
Procedure: The FLIPR Membrane Potential Blue Explorer Kit (Molecular Devices) was used to characterise inhibitors and to optimise a high-throughput compound screen. Cells were seeded at approximately 60,000 cells/well on a 96-well plate and allowed to attach and grow overnight in a cell incubator. […] Cells were then washed once with mHBSS and incubated with 50 µl of the mHBSS-resuspended FMP assay dye and 50 µl of mHBSS (with or without inhibitors) and incubated at room temperature for 30 min. The plate was then placed in an EnSpire Multimode plate reader (PerkinElmer) and four sequential measurements of fluorescence were recorded as a baseline reference. Immediately after the baseline measurements were taken, 25 µl of 5 mM glutamine dissolved in mHBSS was injected into each well and the plate was shaken orbitally for 5 s before a series of consecutive fluorescence measurements were taken. The excitation wavelength was set to 530 nm and the emission was detected at 565 nm. […] After the assay was complete, the liquid content of the plate was carefully removed, and the cell monolayer inspected to ensure it remained intact throughout the course of the assay.

[2] = tested on: SNAT1 and SNAT2; assay: FMP assay: inhibition of glutamine-induced membrane depolarisation in amino acid depleted HCC1806 cells; format: cell-based, human; details: FMP assay, top hit compounds from the HTS, 9-point dose-response, n = 6
Procedure: The FLIPR Membrane Potential Blue Explorer Kit (Molecular Devices) was used to characterise inhibitors and to optimise a high-throughput compound screen. Cells were seeded at approximately 60,000 cells/well on a 96-well plate and allowed to attach and grow overnight in a cell incubator. […] Cells were then washed once with mHBSS and incubated with 50 µl of the mHBSS-resuspended FMP assay dye and 50 µl of mHBSS (with or without inhibitors) and incubated at room temperature for 30 min. The plate was then placed in an EnSpire Multimode plate reader (PerkinElmer) and four sequential measurements of fluorescence were recorded as a baseline reference. Immediately after the baseline measurements were taken, 25 µl of 5 mM glutamine dissolved in mHBSS was injected into each well and the plate was shaken orbitally for 5 s before a series of consecutive fluorescence measurements were taken. The excitation wavelength was set to 530 nm and the emission was detected at 565 nm. The Δ fluorescent signal reported in the figures was taken 30 s after substrate addition. After the assay was complete, the liquid content of the plate was carefully removed, and the cell monolayer inspected to ensure it remained intact throughout the course of the assay.
IC50 were calculated using equation y=ymax(1−x/x+IC50)

Row | SMILES | FMP fluorescence reading ([1]; t=0 s) | FMP fluorescence reading ([1]; t=15 s) | FMP fluorescence reading ([1]; t=30 s) | FMP fluorescence reading ([1]; t=45 s) | FMP fluorescence reading ([1]; t=60 s) | FMP fluorescence reading ([1]; t=75 s) | FMP fluorescence reading ([1]; t=90 s) | FMP fluorescence reading ([1]; t=105 s) | FMP fluorescence reading ([1]; t=120 s) | FMP fluorescence reading ([1]; t=135 s) | FMP fluorescence reading ([1]; t=-15 s) | FMP fluorescence reading ([1]; t=-30 s, replicates 1-3) | FMP response as substrate [1] | IC50 [2] [µM]
1 | NC(=O)CCC(N)C(=O)O (stereo in doubt) [D-glutamine] | 42839 and 39003 and 33523 | 50034 and 45149 and 38644 | 50270 and 45056 and 39117 | 50350 and 45753 and 39233 | 50602 and 45748 and 39437 | 50996 and 45609 and 39481 | 51179 and 45923 and 39430 | 51145 and 45682 and 40002 | 51340 and 46043 and 40162 | 51584 and 46357 and 40097 | 43005 and 38805 and 33297 | 42947 and 39128 and 33746 | – | –
2 | C[C@H](N)C(=O)O [Alanine] | 54596 and 53457 and 39829 | 99809 and 107431 and 86655 | 104988 and 111613 and 89183 | 107389 and 114043 and 90927 | 109154 and 114952 and 91569 | 110049 and 115127 and 91618 | 110411 and 114906 and 91021 | 110237 and 114204 and 90013 | 109638 and 112786 and 88869 | 108521 and 111868 and 87878 | 54286 and 53641 and 39860 | 53991 and 53679 and 39761 | strongest response | –
3 | N=C(N)NCCC[C@H](N)C(=O)O [Arginine] | 57601 and 55451 and 44145 | 59785 and 58453 and 46579 | 60283 and 58803 and 46849 | 60859 and 58896 and 47284 | 61207 and 59368 and 47582 | 60824 and 59447 and 47575 | 61207 and 59194 and 47872 | 61703 and 59566 and 47735 | 61529 and 59552 and 47812 | 61459 and 60027 and 47987 | 57812 and 55789 and 44423 | 57675 and 55602 and 44293 | – | –
4 | CCN1CCN(Cc2nn(-c3ccc(C)c(Cl)c3)c(N)c2-c2ccccc2)CC1 [Compound 55_A] | – | – | – | – | – | – | – | – | – | – | – | – | – | 3.84
5 | C#Cc1cccc(NC(=O)N2CC(S(=O)(=O)N3CCN(C(=O)OC(C)(C)C)CC3)C2)c1 [Compound 55_G] | – | – | – | – | – | – | – | – | – | – | – | – | – | 83.5
6 | Cc1sc2nc(CN3CCC(C)CC3)nc(N3CCC(C)CC3)c2c1C [Compound 56_C] | – | – | – | – | – | – | – | – | – | – | – | – | – | 18.4
7 | COC(=O)c1ccc(C(=O)N2CCc3sccc3C2c2ccccc2)s1 (stereo not drawn) [Compound 57_C] | – | – | – | – | – | – | – | – | – | – | – | – | – | 114
8 | N[C@@H](CCC(=O)O)C(=O)O [Glutamate] | 60032 and 51875 and 43598 | 69207 and 54669 and 51909 | 69328 and 57256 and 51957 | 69976 and 58306 and 52382 | 70448 and 59203 and 52416 | 70747 and 59679 and 52622 | 70473 and 59687 and 53012 | 70925 and 60367 and 52735 | 71220 and 60249 and 53084 | 71259 and 60330 and 52832 | 59967 and 51788 and 43666 | 60239 and 51751 and 43455 | – | –
9 | NCC(=O)O [Glycine] | 44899 and 49024 and 38114 | 85173 and 99097 and 84032 | 91215 and 103676 and 87874 | 94947 and 105684 and 90110 | 97113 and 106636 and 90762 | 98961 and 107619 and 91458 | 100150 and 108044 and 90972 | 99878 and 107571 and 90946 | 99987 and 106851 and 90990 | 99765 and 106361 and 89148 | 44724 and 48839 and 38339 | 44368 and 48981 and 38101 | strongest response | –
10 | CC(C)C[C@H](N)C(=O)O [Leucine] | 61522 and 51455 and 48802 | 88098 and 66521 and 74458 | 89784 and 72558 and 75976 | 91395 and 75844 and 77135 | 92447 and 78186 and 77607 | 93485 and 79454 and 77906 | 93344 and 79903 and 78344 | 93716 and 80571 and 78223 | 93656 and 80831 and 77995 | 93514 and 80690 and 77322 | 61387 and 51586 and 49166 | 61314 and 51367 and 48860 | weak signal | –
11 | N[C@@H](Cc1ccccc1)C(=O)O [Phenylalanine] | 56591 and 55422 and 43224 | 73580 and 72052 and 58378 | 74725 and 73471 and 59296 | 75492 and 73818 and 59645 | 76233 and 74445 and 59921 | 76773 and 74969 and 60608 | 77388 and 75496 and 60901 | 77493 and 75802 and 61169 | 77831 and 75902 and 61002 | 78078 and 75738 and 60891 | 56780 and 55712 and 43156 | 56746 and 55392 and 43055 | weak signal | –
12 | O=C(O)[C@@H]1CCCN1 [Proline] | 59025 and 53021 and 43095 | 104996 and 86952 and 88962 | 110697 and 98531 and 91551 | 113693 and 105110 and 94295 | 116376 and 109453 and 95282 | 118353 and 112938 and 95197 | 118882 and 114320 and 95021 | 119266 and 115087 and 95127 | 119471 and 115780 and 93913 | 119506 and 115226 and 93809 | 58886 and 52711 and 43194 | 59126 and 52759 and 43032 | strongest response | –
